Results on 23 compounds are retold here after paper PMC5150661 (Journal of Medicinal Chemistry, 2016).

Series [1] is classed as in vitro ADME. The following applies: liver microsomes. Background: Liver microsomes are a subcellular fraction often used to study metabolism.
Series [2] deals with T1, wild-type androgen receptor (AR) in LAPC4 cell line (Homo sapiens, UniProt P10275).
T1 sequence (P10275 1-920): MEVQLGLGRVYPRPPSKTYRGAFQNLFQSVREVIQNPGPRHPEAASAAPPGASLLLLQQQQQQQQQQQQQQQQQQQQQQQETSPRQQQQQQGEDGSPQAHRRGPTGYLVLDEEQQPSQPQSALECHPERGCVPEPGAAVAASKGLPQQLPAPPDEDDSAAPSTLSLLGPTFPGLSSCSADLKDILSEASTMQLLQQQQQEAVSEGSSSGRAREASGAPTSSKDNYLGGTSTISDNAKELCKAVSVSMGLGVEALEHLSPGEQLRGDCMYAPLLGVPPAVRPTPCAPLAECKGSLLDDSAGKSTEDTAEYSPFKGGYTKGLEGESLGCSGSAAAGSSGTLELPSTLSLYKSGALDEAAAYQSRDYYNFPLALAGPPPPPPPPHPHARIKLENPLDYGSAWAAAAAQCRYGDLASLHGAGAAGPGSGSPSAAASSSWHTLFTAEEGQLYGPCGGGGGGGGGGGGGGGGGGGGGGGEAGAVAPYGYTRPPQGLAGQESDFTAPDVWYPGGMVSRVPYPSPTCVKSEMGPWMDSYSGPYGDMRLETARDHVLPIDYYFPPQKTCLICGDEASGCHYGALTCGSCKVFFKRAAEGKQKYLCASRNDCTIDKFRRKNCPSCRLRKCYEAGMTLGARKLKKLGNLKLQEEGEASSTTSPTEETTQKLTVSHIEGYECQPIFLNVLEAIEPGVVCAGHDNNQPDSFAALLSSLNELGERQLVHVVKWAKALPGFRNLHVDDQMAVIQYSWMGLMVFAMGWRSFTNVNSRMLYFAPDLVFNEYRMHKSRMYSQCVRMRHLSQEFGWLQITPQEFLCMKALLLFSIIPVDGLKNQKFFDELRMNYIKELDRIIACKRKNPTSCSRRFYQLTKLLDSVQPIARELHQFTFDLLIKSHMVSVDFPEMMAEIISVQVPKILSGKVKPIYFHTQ
The format is cell-based.

Series [3] relates to S. mansoni. Description: S. mansoni in vivo study, worm burden reduction in infected NMRI mice. Also noted: species or system Schistosoma mansoni in NMRI mice. To be noted: 100 mg/kg.
Series [4] in a line: Mouse exposure study after oral administration. The format is in vivo, male Swiss outbred mice. To be noted: after oral administration of 100 mg/kg of 1.
Series [5] deals with S. mansoni. To be noted: cited from earlier work.
Series [6] deals with S. mansoni. To be noted: 1 × 100 mg/kg po; ref Keiser et al. 21; cited from earlier work.
The mark [7] stands for this setting: 0.01 M HCl (approximately pH 2.0), 1% DMSO, nephelometry.
The mark [8] stands for this setting: pH 6.5 phosphate buffer, 1% DMSO, nephelometry.

The structures appear in SMILES notation. Like-named read-outs stand apart in the source and are kept apart here. Marks after values point to notes of the source that are not given here. A value given as a limit tells only on which side of the number the result lay.

`CN1C(=O)N(c2ccc(F)c(C(F)(F)F)c2)C(=O)C1(C)C` [Compd 2, 3-[4-Fluoro-3-(trifluoromethyl)phenyl]-1,5,5-trimethylimidazolidine-2,4-dione]: the Sol2.0 under setting [7] was 50–100/50–100 μg/mL. Moreover, the Sol6.5 under setting [8] is reported as 50–100/50–100 μg/mL. In series [1], the metabolic reactions observed result is “N-dealkylation metabolic reactions to form 1” and the “metabolic stability (in words)” value is given as “intermediate”.

`CCN1C(=O)N(c2ccc(F)c(C(F)(F)F)c2)C(=O)C1(C)C` [Compd 3, 1-Ethyl-3-[4-fluoro-3-(trifluoromethyl)phenyl]-5,5-dimethylimidazolidine-2,4-dione] displayed a Sol2.0 under setting [7] of 50 to 100 µg/mL. This compound also yielded a Sol6.5 under setting [8] of 25 to 50 µg/mL. In addition, in series [1], the metabolic reactions observed result is “N-dealkylation metabolic reactions to form 1” and the “metabolic stability (in words)” value is “intermediate”.

For the compound `CC1(C)C(=O)N(c2ccc(F)c(C(F)(F)F)c2)C(=O)N1CC(N)=O` [Compd 4, 2-[3-[4-Fluoro-3-(trifluoromethyl)phenyl]-5,5-dimethyl-2,4-dioxoimidazolidin-1-yl]acetamide], the Sol2.0 under setting [7] is 50–100/50–100 μg/mL. Moreover, the Sol6.5 under setting [8] is listed as 50–100/50–100 μg/mL. Also, the “LAPC4 IC50” value in series [2] (DHT-induced luciferase reporter, 24 h) is on record as “agonist”. Moreover, in series [2] (LAPC4 reporter), the “AR functional activity (in words)” value is “weak AR agonist”.

As to `CC1(C)C(=O)N(c2ccc(F)c(C(F)(F)F)c2)C(=O)N1CC#N` [Compd 5, 2-[3-[4-Fluoro-3-(trifluoromethyl)phenyl]-5,5-dimethyl-2,4-dioxoimidazolidin-1-yl]acetonitrile], under setting [7], the Sol2.0 was 25–50/25–50 μg/mL. Also, the Sol6.5 under setting [8] was 25–50/25–50 μg/mL.

Take `CC1(C)C(=O)N(c2ccc(F)c(C(F)(F)F)c2)C(=O)N1CCc1ccccc1` [Compd 6, 3-[4-Fluoro-3-(trifluoromethyl)phenyl]-5,5-dimethyl-1-phenethylimidazolidine-2,4-dione]: the Sol2.0 under setting [7] fell in the range of 12.5 to 25 µg/mL. Besides, under setting [8], the Sol6.5 lay in the range of 25 to 50 µg/mL. Further, in series [1], the “metabolic stability (in words)” value is on record as “unstable”.

On to `CC1(C)C(=O)N(c2ccc(F)c(C(F)(F)F)c2)C(=O)N1S(C)(=O)=O` [Compd 7, 3-[4-Fluoro-3-(trifluoromethyl)phenyl]-5,5-dimethyl-1-(methylsulfonyl)imidazolidine-2,4-dione], for which the Sol2.0 under setting [7] is reported as 1.6–3.1/1.6–3.1 μg/mL. The Sol6.5 under setting [8] was 1.6–3.1/1.6–3.1 μg/mL. Further, the “metabolic stability (in words)” value in series [1] is “highly stable”.

As for `CC1(C)C(=O)N(c2ccc(F)c(C(F)(F)F)c2)C(=O)N1S(=O)(=O)c1ccccc1` [Compd 8, 3-[4-Fluoro-3-(trifluoromethyl)phenyl]-5,5-dimethyl-1-(phenylsulfonyl)imidazolidine-2,4-dione], under setting [7], the Sol2.0 was <1.6/<1.6 μg/mL. The Sol6.5 under setting [8] is reported as <1.6/<1.6 μg/mL. Moreover, the “metabolic stability (in words)” value in series [1] was “unstable”.

In the case of `CC1(C)NC(=O)N(c2ccnc(C(F)(F)F)c2)C1=O` [Compd 16, 5,5-Dimethyl-3-[2-(trifluoromethyl)pyridin-4-yl]imidazolidine-2,4-dione], the “cure of infected mice” value in the series with S. mansoni [3] was “cure of all of the infected mice”.

With `O=C1CNC(=O)N1c1ccc(F)c(C(F)(F)F)c1` [Compd 22], the Sol2.0 under setting [7] is >100/>100 μg/mL. Besides, the Sol6.5 under setting [8] is given as >100/>100 μg/mL. The “metabolic stability (in words)” value in series [1] is reported as “high metabolic stabilities”.

With `CC1(CO)NC(=O)N(c2ccc(F)c(C(F)(F)F)c2)C1=O` (stereo not shown) [Compd 25, 3-[4-Fluoro-3-(trifluoromethyl)phenyl]-5-(hydroxymethyl)-5-methylimidazolidine-2,4-dione], the Sol2.0 under setting [7] is given as 25–50/25–50 μg/mL. Further, the Sol6.5 under setting [8] is 25–50/25–50 μg/mL. Besides, in series [4], the “exposure of metabolite relative to 1, based on AUC0–24h” value is “approximately 3%”. The “metabolic stability (in words)” value in series [1] is “high metabolic stabilities”.

With `O=C1NC2(CCCC2)C(=O)N1c1ccc(F)c(C(F)(F)F)c1` [Compd 26, 3-[4-Fluoro-3-(trifluoromethyl)phenyl]-1,3-diazaspiro[4.4]nonane-2,4-dione], under setting [7], the Sol2.0 is given as 50–100/50–100 μg/mL. The Sol6.5 under setting [8] is reported as 50–100/50–100 μg/mL. Further, in series [1], the “metabolic stability (in words)” value is on record as “decreased the metabolic stabilities”.

Consider `O=C1NC2(CCCCC2)C(=O)N1c1ccc(F)c(C(F)(F)F)c1` [Compd 27, 3-[4-Fluoro-3-(trifluoromethyl)phenyl]-1,3-diazaspiro[4.5]decane-2,4-dione], for which, under setting [7], the Sol2.0 is reported as 3.1–6.3/3.1–6.3 μg/mL. Also, the Sol6.5 under setting [8] is reported as 3.1–6.3/3.1–6.3 μg/mL. In addition, the “metabolic stability (in words)” value in series [1] was “decreased the metabolic stabilities”.

Turning to `O=C1C2CCCN2C(=O)N1c1ccc(F)c(C(F)(F)F)c1` (stereo not shown) [Compd 28, 2-[4-Fluoro-3-(trifluoromethyl)phenyl]tetrahydro-1H-pyrrolo[1,2-c]imidazole-1,3(2H)-dione], the Sol2.0 under setting [7] was 25–50/25–50 μg/mL. For the same compound, the Sol6.5 under setting [8] is recorded as 25–50/25–50 μg/mL. For the same compound, the “metabolic stability (in words)” value in series [1] is reported as “decreased the metabolic stabilities”.

Consider `CC1(C)CC(=O)N(c2ccc(F)c(C(F)(F)F)c2)C1=O` [Compd 29, 1-[4-Fluoro-3-(trifluoromethyl)phenyl]-3,3-dimethylpyrrolidine-2,5-dione], for which, under setting [7], the Sol2.0 is 12.5–25/12.5–25 μg/mL. For the same compound, under setting [8], the Sol6.5 is listed as 12.5–25/12.5–25 μg/mL.

For the compound `CC1(C)OC(=O)N(c2ccc(F)c(C(F)(F)F)c2)C1=O` [Compd 30, 3-[4-Fluoro-3-(trifluoromethyl)phenyl]-5,5-dimethyloxazolidine-2,4-dione], the Sol2.0 under setting [7] is 3.1–6.3/3.1–6.3 μg/mL. Further, the Sol6.5 under setting [8] is recorded as 3.1–6.3/3.1–6.3 μg/mL.

The compound `CC1(C)NC(=O)C(c2ccc(F)c(C(F)(F)F)c2)C1=O` (stereo not shown) [Compd 31, 3-[4-Fluoro-3-(trifluoromethyl)phenyl]-5,5-dimethylpyrrolidine-2,4-dione] came in with a Sol2.0 under setting [7] of 25 to 50 µg/mL.

On to `CC1(C)CN(c2ccc(F)c(C(F)(F)F)c2)C(=O)N1` [Compd 32, 1-[4-Fluoro-3-(trifluoromethyl)phenyl]-4,4-dimethylimidazolidin-2-one], for which the Sol2.0 under setting [7] is 12.5–25/12.5–25 μg/mL. Besides, under setting [8], the Sol6.5 is 12.5–25/12.5–25 μg/mL.

In the case of `CC1(C)C(=O)NC(=O)N1c1ccc(F)c(C(F)(F)F)c1` [Compd 33, 1-[4-Fluoro-3-(trifluoromethyl)phenyl]-5,5-dimethylimidazolidine-2,4-dione], the Sol2.0 under setting [7] is 25–50/25–50 μg/mL. Further, the Sol6.5 under setting [8] was 25–50/25–50 μg/mL.

As for `CC1(C)CC(=O)N(c2ccc(F)c(C(F)(F)F)c2)C(=O)N1` [Compd 34, 3-[4-Fluoro-3-(trifluoromethyl)phenyl]-6,6-dimethyldihydropyrimidine-2,4(1H,3H)-dione], the Sol2.0 under setting [7] is given as 25–50/25–50 μg/mL. Moreover, the Sol6.5 under setting [8] is given as 25–50/25–50 μg/mL.

For the compound `CC1(C)CNC(=O)N(c2ccc(F)c(C(F)(F)F)c2)C1=O` [Compd 35, 3-[4-Fluoro-3-(trifluoromethyl)phenyl]-5,5-dimethyldihydropyrimidine-2,4(1H,3H)-dione], under setting [7], the Sol2.0 was 12.5–25/12.5–25 μg/mL. Also, the Sol6.5 under setting [8] was 12.5–25/12.5–25 μg/mL.

Consider `CC(C)(NC(=O)Nc1ccc(F)c(C(F)(F)F)c1)C(=O)O` [Compd 36, 2-[3-[4-Fluoro-3-(trifluoromethyl)phenyl]ureido]-2-methylpropanoic acid], for which the Sol2.0 under setting [7] is 25 to 50 µg/mL. The “exposure of metabolite relative to 1, based on AUC0–24h” value in series [4] is below 1%.

Consider `CC1(C)NC(=O)N(c2ccc([N+](=O)[O-])c(C(F)(F)F)c2)C1=O` [N, nilutamide], for which the “antischistosomal activity in S. mansoni-infected mice” value in the series with S. mansoni [5] is reported as “weak, but measurable”.

`O=C(C1CCCCC1)N1CC(=O)N2CCc3ccccc3C2C1` (stereo not shown) [PZ, Praziquantel]: the Sol2.0 (pH 2) was >100/>100 μg/mL. Moreover, for the setting “pH 6.5”, the Sol6.5 was >100/>100 μg/mL. In the series with S. mansoni [5] (mouse model), the “ED50 against adult S. mansoni” value was 172 to 202 mg/kg and the “activity against juvenile stages of the parasite” value was “no significant activity”. In the series with S. mansoni [6], the “S. mansoni WBR” value is recorded as 18 ^i %.
